Reference: article PMC9544318, “Advanced Pyrrolidine‐Carbamate Self‐Immolative Spacer with Tertiary Amine Handle Induces Superfast Cyclative Drug Release” (Chemmedchem, 2022)

Tests used:
Type in all cases: physicochemical
[1] = CPT release under acidic conditions (acetate buffer, pH 5) mimicking the lysosomal compartment; details: for carbamate stability under acidic conditions: compared with pH 7.5
Procedure: [26] The release of free CPT was also studied upon Sp2-CPT and Sp3-CPT incubation under more acidic conditions (acetate buffer, pH 5), mimicking the lysosomal compartment.

[2] = Carbamate cleavage study of SI spacer-CPT modules (CPT release by HPLC); details: for half-life at 1 mM: CPT release by HPLC, read-out: carbamate half-life (t1/2) (converted)
From the text: We undertook the structural optimization of the pyrrolidine‐carbamate SI spacer Sp2, aimed at decreasing the carbamate half‐life (t 1/2) for a faster hydroxy cargo release. The molecular structures of the synthesized SI spacers are reported in Figure 2 (all synthetic procedures are reported in the Supporting Information). Here, the Sp2 pyrrolidine ring was replaced by either a piperidine (in Sp4) or an isoxazolidine (in Sp5) cycle. In particular, Sp4 was designed to assess the impact of the cyclic amine ring size on the SI spacer degradation.[20] On the other hand, the use of an isoxazolidine ring in Sp5 aimed at evaluating the contribution of the “α‐effect” to the spacer reactivity.[21] While Sp4 was prepared starting from racemic 2‐piperidinecarbaldehyde, the synthesis of Sp5 was inspired by Bode's route to 5‐oxaproline.[22] Moreover, as we recently observed the inhibitory effects on the spacer cyclization given by a phosphate monoester group,[23] we devised the SI spacer modification with a basic handle. Since at physiological pH (approximately 7.4) the pyrrolidine is mostly present as protonated species, a second amine handle may force the pyrrolidine deprotonation, thus lowering its pK a value and increasing its nucleophilic character.[24] To this end, SI spacers Sp3 and Sp6/8 were endowed with a tertiary amine handle connected either at the carbamate N atom (in Sp3 and Sp7) or at the pyrrolidine ring (in Sp6 and Sp8). While the former spacers were rapidly obtained by reductive amination of Boc‐L‐prolinal, the latter were prepared by multistep synthesis, starting from oxygenated proline derivatives, such as 4‐oxo‐L‐proline and hydroxyproline. Firstly, the exocyclic secondary amine of SI spacers Sp3/8 was conjugated to the tertiary hydroxy group of the anticancer drug Camptothecin (CPT) via carbamate bond. As described recently,[19, 23] the final spacer‐drug modules Sp3/8‐CPT (Figure 2) were isolated as trifluoroacetate salts. These compounds were dissolved in a DMSO/phosphate buffer (pH 7.5) mixture and incubated at 37 °C, followed by aliquot collection at different time points and CPT release analysis by HPLC. The percentage of intact carbamate calculated from peak integrals was plotted versus time, and the spacer cyclization rates were estimated in terms of carbamate half‐life (t 1/2).
Carbamate Cleavage Studies
Experimental Procedure for Sp-CPT Modules
Stock solutions of lyophilized SI spacer-CPT modules (concentration: 10 mM in DMSO) were diluted 1:10 (final concentration: 1 mM) with 25 mM phosphate buffer (pH 7.4). Immediately after preparation, the mixtures were incubated at 37 °C. Aliquots were collected at different time points and diluted 1:4 (final concentration: 250 μ M) with a blocking buffer (8:2 H2O/CH3CN + 0.2% TFA).
The diluted aliquots were injected into an analytical HPLC-PDA system (see Materials and Methods), using the following parameters: […]
Gradient From 10% B to 50% B in 26 min.
Areas under the curve (AUC) of the detected peaks were measured using software associated to the HPLC systems. The rate of free OH release from the starting carbamate were obtained by calculating the relative ratios of AUC values corresponding to the amine -bearing prodrug and the free payload. Data were plotted versus time and half-lives (t1/2) were calculated by non -linear fitting (exponential, one-phase decay) using GraphPad Prism software .
(1 picture or pasted object on this page, not shown here)

[3] = Solubility observed in aqueous buffer/DMSO mixture of the release study
Procedure: [25] The stability of carbamate Sp4-CPT may be ascribed to a suboptimal conformation of the piperidine spacer compared to the native pyrrolidine. […] The stability of Sp5-CPT was also analysed in a phosphate buffer solution at pH 7.5, with DMSO content increased to 20 % DMSO.

[4] = DMSO/phosphate buffer (pH 7.5), 37 °C

SMILES	carbamate stability under acidic conditions [1]	half-life at 1 mM [2, 4] [h]	further results
CC[C@@]1(OC(=O)N(C)C[C@@H]2CCCN2)C(=O)OCc2c1cc1n(c2=O)Cc2cc3ccccc3nc2-1 [Sp2-CPT, reference compound]	much more stable	3.6	–
CC[C@@]1(OC(=O)N(C)C[C@@H]2C[C@H](N(C)C)CN2)C(=O)OCc2c1cc1n(c2=O)Cc2cc3ccccc3nc2-1 [Sp6-CPT]	–	5.5	–
CC[C@@]1(OC(=O)N(CCN(C)C)C[C@@H]2CCCN2)C(=O)OCc2c1cc1n(c2=O)Cc2cc3ccccc3nc2-1 [Sp3-CPT]	much more stable	0.9	drug release activity under acidic conditions ([1]; compared with Sp2 reference): consistently higher drug release activity than the Sp2 reference; half-life compared with reference Sp2-CPT [2, 4]: four times shorter
CC[C@@]1(OC(=O)N(C)C[C@@H]2CCON2)C(=O)OCc2c1cc1n(c2=O)Cc2cc3ccccc3nc2-1 [Sp5-CPT]	–	–	cyclative carbamate cleavage (CPT release) [2, 4]: complete inhibition of the cyclative carbamate cleavage; CPT release ([2]; phosphate buffer pH 7.5, 20 % DMSO): no CPT release was observed; solubility ([3]; 9 : 1 aqueous buffer/DMSO mixture, pH 7.5): partially insoluble; solubility ([3]; phosphate buffer pH 7.5, DMSO content increased to 20 %): perfectly soluble
CC[C@@]1(OC(=O)N(C)C[C@@H]2C[C@@H](OCCN(C)C)CN2)C(=O)OCc2c1cc1n(c2=O)Cc2cc3ccccc3nc2-1 [Sp8-CPT]	–	3.2	–
CC[C@@]1(OC(=O)N(CCCN(C)C)C[C@@H]2CCCN2)C(=O)OCc2c1cc1n(c2=O)Cc2cc3ccccc3nc2-1 [Sp7-CPT]	–	3.3	–
